These results are taken from patent publication US20090162413A1 (priority 1998, published 2009).

Experiment [1] relates to human coronary artery smooth muscle cells (hCaSMC). The experiment is described as follows: 3H-thymidine uptake proliferation assay, hCaSMC. In kind it is cell-based. As to conditions: Homo sapiens; read-out: hCaSMC IC50 Mean ± SEM. As for the experimental part:
Experiments were performed to investigate interactions between zotarolimus (ABT-578) and paclitaxel when administered in combination. The effects of paclitaxel and zotarolimus on the anti-proliferative activity of human coronary artery smooth muscle ([…]) and endothelial […] determined using an in vitro proliferation assay. The proliferation and migration of vascular smooth muscle cells into the vascular neointima is a characteristic pathologic response seen in restenotic lesions (Lafont and Libby, 1998). As a result, in vitro assays which specifically measure the anti-proliferative activity of candidate anti-restenotic compounds on human coronary artery smooth muscle and endothelial cells predict potential anti-restenotic activity in vivo. Compounds or combinations of compounds which attenuate growth factor-mediated human coronary artery smooth muscle cell ([…]) proliferation, as measured by the tritium incorporation assay in vitro, are candidate anti-restenotic agents. The tritium incorporation assay is an accurate and sensitive method to determine cell number and proliferation. […] The attenuation of zotarolimus's anti-proliferative activity by tacrolimus is a clear example of this effect (FIG. 10A). To determine the potential anti-restenotic activity of combinations of zotarolimus and paclitaxel, the proliferation of […] was measured in the presence of each compound and in combination. To determine if paclitaxel attenuated or augmented the activity of zotarolimus the effect of paclitaxel and zotarolimus alone and in combination on growth-factor induced proliferation was determined. Data were analyzed for additivity using an isobologram approach and a combination index analysis. An isobologram is a Cartesian plot of pairs of doses that, in combination, yield a specified level of effect. It is a convenient way of graphically displaying results of drug-combination and similar studies, because paired values of experimental points that fall below or above the line connecting the axial points indicate synergistic and non-synergistic interactions, respectively. Cell proliferation was monitored by following incorporation of ^3H-thymidine into newly synthesized DNA of cells stimulated by serum and growth factors. Exponentially growing […] were seeded into 96-well flat bottom tissue culture plates at 5,000 cells/well (10,000 cells/well for […]). The cells were allowed to attach overnight. The growth medium was removed the following day, and cells were washed twice with un-supplemented (basal) medium to remove traces of serum and growth factors. […] PerkinElmer; Wellesley; MA) was added to each filter well and the plates were counted using a TopCount microplate scintillation counter (PerkinElmer). […]

Experiment [2] concerns human coronary artery endothelial cells (hCaEC). The experiment is described as follows: 3H-thymidine uptake proliferation assay, hCaEC. Format: cell-based. The note with it: Homo sapiens, Endothelial cell; read-out: hCaEC IC50 Mean ± SEM. As for the experimental part:
Experiments were performed to investigate interactions between zotarolimus (ABT-578) and paclitaxel when administered in combination. The effects of paclitaxel and zotarolimus on the anti-proliferative activity of human coronary artery smooth muscle ([…]) and endothelial […] determined using an in vitro proliferation assay. The proliferation and migration of vascular smooth muscle cells into the vascular neointima is a characteristic pathologic response seen in restenotic lesions (Lafont and Libby, 1998). As a result, in vitro assays which specifically measure the anti-proliferative activity of candidate anti-restenotic compounds on human coronary artery smooth muscle and endothelial cells predict potential anti-restenotic activity in vivo. To determine if paclitaxel attenuated or augmented the activity of zotarolimus the effect of paclitaxel and zotarolimus alone and in combination on growth-factor induced proliferation was determined. Data were analyzed for additivity using an isobologram approach and a combination index analysis. An isobologram is a Cartesian plot of pairs of doses that, in combination, yield a specified level of effect. It is a convenient way of graphically displaying results of drug-combination and similar studies, because paired values of experimental points that fall below or above the line connecting the axial points indicate synergistic and non-synergistic interactions, respectively. Cell proliferation was monitored by following incorporation of ^3H-thymidine into newly synthesized DNA of cells stimulated by serum and growth factors. Exponentially growing […] were seeded into 96-well flat bottom tissue culture plates at 5,000 cells/well (10,000 cells/well for […]). The cells were allowed to attach overnight. […] PerkinElmer; Wellesley; MA) was added to each filter well and the plates were counted using a TopCount microplate scintillation counter (PerkinElmer). […] The concentration eliciting a specific anti-proliferative effect was determined using a four-parameter equation (equation 1): […]

Experiment [3] relates to porcine coronary arteries (neointimal hyperplasia). Nature of the experiment: porcine coronary stent model, zotarolimus-eluting BiodivYsio PC stent vs polymer only stent, 28 days (Example 3). Format: in vivo. The note with it: stent eluting zotarolimus from a polymer, porcine coronary artery.

With `CO[C@H]1C[C@@H]2CC[C@@H](C)[C@@](O)(O2)C(=O)C(=O)N2CCCC[C@H]2C(=O)O[C@H]([C@H](C)C[C@@H]2CC[C@H](n3cnnn3)[C@H](OC)C2)CC(=O)[C@H](C)/C=C(\C)[C@@H](O)[C@@H](OC)C(=O)[C@H](C)C[C@H](C)/C=C/C=C/C=C/1C` [zotarolimus], the IC50 is 4.2 ± 1.7 nM in experiment [1] and 3.6 ± 0.2 nM in experiment [2]. The neointimal hyperplasia result in experiment [3] is given as “reduction in neointimal hyperplasia”.

Broadly, the IC50 is the concentration that inhibits the measured activity by half.
